Measured values reported in patent US11672959B2, “Expandable member systems and methods for drug delivery” (Intersect ENT, Inc., priority 2019, dated 2023).

Tests used:
[1] = tissue concentration of mometasone furoate after balloon expansion in Eustachian tubes (LCMS); assay type: in vivo, domestic sheep; details: sheep, Eustachian tube mucosa, 1500 μg balloon expanded to 12 atm, read-out: maximum mometasone furoate tissue concentration
Description: The Eustachian tubes of eight domestic sheep were accessed transnasally using balloon catheters having drug layers containing 1500 μg of mometasone furoate. The balloon catheters were made as described in Example 1. A singe balloon catheter was expanded to 12 atm of pressure to deliver the mometasone furoate crystals to Eustachian tube tissue and to dilate each contralateral Eustachian tube at its proximal opening. The animals were sacrificed at either 7 days or 30 days after balloon expansion, and mucosa from each Eustachian tube collected and frozen. Mometasone furoate concentration was then quantified using liquid chromatography mass spectrometry (LCMS).

[2] = tissue MF concentration after balloon expansion in sheep frontal sinus ostia; details: for concentration at 30 days / concentration at 7 days / concentration at 14 days / concentration at 1 hour: sheep; for concentration at 1 hour: Approx. 1 hour after inflation
Description: (§1) The amount of mometasone furoate transferred to the ostia (total MF released) was measured after inflation of balloons having a drug layer including the listed dose of mometasone furoate drug crystals and poly(ethylene glycol) and polysorbate as the excipients.
(§2) In this Example, drug layered balloons were made according to Example 1 and used to dilate sheep frontal ostia.

[3] = in vitro release rates for expandable members having varying amounts of crystalline mometasone furoate (FIG. 4); assay type: physicochemical
Text: FIG. 4 is a graph comparing the in vitro release rates for expandable members having varying amounts of crystalline mometasone furoate. The amount of crystalline and amorphous drug provided in the drug layer will generally vary depending on the active agent employed, target tissue being treated, therapeutic drug level desired in the target tissue, and/or the drug release profile desired. For example, the ratio of amorphous to crystalline drug in the drug layer can be about 1:3, 1:2, 1:1, 2:1, or 3:1. A higher amorphous to crystalline drug ratio can lead to quicker tissue absorption due to the higher solubility of amorphous drug. In turn, a higher crystalline to amorphous drug ratio can lead to longer residence time of the drug on tissue. […] Thus, a combination of amorphous and crystalline drug in the drug layer can provide immediate release of the active agent to begin treatment of a nose, ear, or throat condition, as well as sustained release of the active agent into the target tissue, as illustrated by the moderate in vitro release rates for drug layers subjected to solvent vapor annealing (SVA) in FIG. 4. In some variations, the drug layer is formed to include about 60% of the active agent as drug crystals. In one variation, the drug layer is formed to include mometasone furoate, where about 60% of the mometasone furoate is in crystalline form. The ratio of crystalline to amorphous drug in the drug layer can be adjusted during the drug layering process onto the expandable member, e.g., during the solvent vapor annealing process, as further described below, or during sterilization.

[4] = MF released from drug layered balloon on inflation in sheep frontal sinus ostia; assay type: in vivo
Description: as §1
Expandable members were made by spray coating 6 mm×20 mm semi-compliant balloons with a drug layer formulation. The drug layer formulation included either a 1500 μg or 3000 μg dose of mometasone furoate, poly(ethylene glycol), and a polysorbate. The drug layered balloons were then exposed in an acetone solvent vapor for 30 minutes.
as §2

[5] = plasma MF concentration after balloon expansions in sheep frontal sinus ostia; assay type: in vivo
[6] = frontal sinus ostia tissue, 3000 μg, Average Tissue MF Concentrations, Frontal Sinus Ostia, MF Dose 3000 μg, Study Arm 1, 2
[7] = nasal passage tissue, 3000 μg, Average Tissue MF Concentrations, Nasal Passage, MF Dose 3000 μg, Study Arm 1, 2

concentration at 7 days ([1]; 7 days): 47000 ng/g | concentration at 30 days ([1]; 30 days): 200 ng/g | average tissue MF concentrations for the frontal sinus ostia relative to therapeutic levels ([2]; MF Dose 3000 μg, all time points): at or above therapeutic levels | concentration at 30 days ([2]; frontal sinus ostia tissue, 1500 μg, Average 30 day tissue MF Concentration in Sinus Ostia, 36.4% drug crystals, crystal size 78.7 μm, 30 days): 5000 ng/g | concentration at 30 days ([2]; frontal sinus ostia tissue, 1500 μg, Average 30 day tissue MF Concentration in Sinus Ostia, 62.5% drug crystals, crystal size 128.1 μm, 30 days): 1000 ng/g | concentration at 30 days ([2]; frontal sinus ostia tissue, 1500 μg, MF Concentration Frontal Sinus Ostia Tissue, MF Dose 1500 μg, explant timepoint 30 days, two expansions): 5000 ng/g | concentration at 30 days ([2]; frontal sinus ostia tissue, 1500 μg, average tissue MF concentrations for the frontal sinus ostia, MF dose 1500 μg, 30 days, compared with therapeutic level): > 100 ng/g | concentration at 30 days ([2]; frontal sinus ostia tissue, 1500 μg, mometasone furoate concentrations in tissue at 30 days, crystals sized less than 80 μm, less than 60% of the drug layer containing drug crystals): ~5000 ng/g | concentration at 30 days ([2]; frontal sinus ostia tissue, 3000 μg, Average 30 day tissue MF Concentration in Sinus Ostia, 60.4% drug crystals, crystal size 91.1 μm, 30 days): 100 ng/g | concentration at 30 days ([2]; frontal sinus ostia tissue, 3000 μg, Average 30 day tissue MF Concentration in Sinus Ostia, 67.4% drug crystals, crystal size 132.6 μm, 30 days): 2000 ng/g | concentration at 7 days [2, 6]: 9890 ng/g | concentration at 14 days [2, 6]: 1250 ng/g | concentration at 30 days ([2]; frontal sinus ostia tissue, 3000 μg, Average Tissue MF Concentrations, Frontal Sinus Ostia, MF Dose 3000 μg, Study Arm 1, 2, 30 days): 100 ng/g | concentration at 1 hour [2, 6]: 142000 ng/g | concentration at 30 days ([2]; in vivo, 30 day tissue concentrations (in sheep frontal sinus ostia)): ≥ 100 ng/g | concentration at 7 days [2, 7]: 60 ng/g | concentration at 14 days [2, 7]: 20 ng/g | concentration at 30 days ([2]; nasal passage tissue, 3000 μg, Average Tissue MF Concentrations, Nasal Passage, MF Dose 3000 μg, Study Arm 1, 2, 30 days): 1380 ng/g | concentration at 1 hour [2, 7]: 4730 ng/g | in vitro release rate ([3]; drug layer contains the active agent only as crystals (100% crystals)): slowest | in vitro release rate ([3]; drug layer contains the active agent only in amorphous form (0% crystals)): fastest | in vitro release rates ([3]; drug layers subjected to solvent vapor annealing (SVA), amorphous and crystalline drug): moderate | Total MF Released ([4]; Dose 1500 μg, 36.4% drug crystals, crystal size 78.7 μm, PEG and polysorbate excipients): 350 µg | Total MF Released ([4]; Dose 1500 μg, 62.5% drug crystals, crystal size 128.1 μm): 478 µg | Total MF Released ([4]; Dose 3000 μg, 60.4% drug crystals, crystal size 91.1 μm): 1778 µg | Total MF Released ([4]; Dose 3000 μg, 67.4% drug crystals, crystal size 132.6 μm): 1058 µg | MF Release (% MF Dose) ([4]; MF Dose 1500 μg, 1st inflation, Study Arm 2 (treatment)): 35 % MF Dose | Average MF Release per Inflation ([4]; MF Dose 1500 μg, 1st inflation, Study Arm 2 (treatment), n=4): 524 µg | MF Release (% MF Dose) ([4]; MF Dose 1500 μg, 2nd inflation, Study Arm 1 (treatment)): 12 % MF Dose | Average MF Release per Inflation ([4]; MF Dose 1500 μg, 2nd inflation, Study Arm 1 (treatment), n=4): 176 µg | Average MF Release per Inflation ([4]; MF Dose 1500 μg, Average over first two inflations): 350 µg | Total MF Released ([4]; MF Dose 1500 μg, Table 7): 350 µg | Average % MF Release per Inflation ([4]; MF Dose 3000 μg, Study Arm 1, two expansions): 30% | Average MF Release per Inflation ([4]; MF Dose 3000 μg, Study Arm 1, two expansions, n=32 devices): 889 µg | Average % MF Release per Inflation ([4]; MF Dose 3000 μg, Study Arm 2 (bloody sheep frontal sinus ostia)): 28% | Average MF Release per Inflation ([4]; MF Dose 3000 μg, Study Arm 2 (bloody sheep frontal sinus ostia), n=4 devices): 854 µg | plasma levels ([5]; MF dose 1500 μg, 30 days post the two expansions): below the limit of quantitation
Structure (SMILES): C[C@@H]1C[C@H]2[C@@H]3CCC4=CC(=O)C=C[C@]4(C)[C@@]3(Cl)[C@@H](O)C[C@]2(C)[C@@]1(OC(=O)c1ccco1)C(=O)CCl [MF, mometasone furoate]
MF Concentration Plasma ([5]; MF Dose 1500 μg, 30 days, analytical range 20.0-1000.0 pg/mL): BLQ (Below Limit of Quantitation (≤20.0 pg/mL))
